Key:
[1] = biological target: ABL1 kinase and its mutant forms; assay: In-vitro ABL1 kinase inhibition; format: biochemical
[2] = SAD study in healthy male volunteers: safety and tolerability; format: in vivo, human; conditions: single-dose 6 mg, 12 mg and 24 mg
Experimental: Initially in the single ascending dose (SAD) study the safety, tolerability, and pharmacokinetics of the compound of Formula I at 6 mg, 12 mg, and 24 mg doses in healthy human male volunteers were evaluated. In this study, the healthy male volunteers within the mean age group of 28.7-35 years were orally administered an investigational medicinal product (IMP) or a placebo after an overnight fast (of at least 8 hours). The IMP used in this study was a hard gelatin capsule comprising the compound of Formula I of varying sizes containing either 6 mg or 24 mg of the compound of Formula I and the excipients. For the 12 mg dose, two capsules of 6 mg were used. The placebo formulation containing the excipients matched the compound of Formula I capsules in shape, size, and color. […] The median time of maximum concentration (Tmax: 2.5-3 hours, across dose range) was independent of the dose level. Dose-related increases in exposure (AUC and Cmax) were observed. […] The inter-subject variability, for the PK parameters, was generally higher in the 12 mg dose group when compared with that in the 6 mg and 24 mg dose groups (Table 07, and FIG. 1)
There were no clinically significant changes in laboratory parameters, and no clinically significant changes in vital signs or electrocardiogram were recorded for any subject.

Cc1ccc(C(=O)NNC(=O)c2c(C)cccc2Cl)cc1C#Cc1cnc2ccccc2c1 [compound of Formula I, N′-(2-chloro-6-methylbenzoyl)-4-methyl-3-[2-(3-quinolyl)ethynyl]-benzohydrazide]
IC50 [1]: nanomolar | TEAE cough (Part C: adverse events; 19 subjects): 21.1% | TEAE dyspnea (Part C: adverse events; 19 subjects): 21.1% | TEAE fatigue (Part C: adverse events; 19 subjects): 21.1% | TEAE nausea (Part C: adverse events; 19 subjects): 26.3% | TEAE neutropenia (Part C: adverse events; 19 subjects): 21.1% | TEAE rash (Part C: adverse events; 19 subjects): 26.3% | TEAE thrombocytopenia (Part C: adverse events; 19 subjects): 31.6% | Abdominal pain (Part C: adverse events; All Grades (N = 19)): 2 (10.5) n (%) | Anaemia (Part C: adverse events; All Grades (N = 19)): 3 (15.8) n (%) | Arthralgia (Part C: adverse events; All Grades (N = 19)): 2 (10.5) n (%) | Back pain (Part C: adverse events; All Grades (N = 19)): 2 (10.5) n (%) | COVID-19 (Part C: adverse events; All Grades (N = 19)): 2 (10.5) n (%) | Chest pain (Part C: adverse events; All Grades (N = 19)): 2 (10.5) n (%) | Constipation (Part C: adverse events; All Grades (N = 19)): 3 (15.8) n (%) | Contusion (Part C: adverse events; All Grades (N = 19)): 2 (10.5) n (%) | Cough (Part C: adverse events; All Grades (N = 19)): 4 (21.1) n (%) | Diarrhoea (Part C: adverse events; All Grades (N = 19)): 3 (15.8) n (%) | Dizziness (Part C: adverse events; All Grades (N = 19)): 2 (10.5) n (%) | Dry skin (Part C: adverse events; All Grades (N = 19)): 3 (15.8) n (%) | Dyspnoea (Part C: adverse events; All Grades (N = 19)): 4 (21.1) n (%) | Fatigue (Part C: adverse events; All Grades (N = 19)): 4 (21.1) n (%) | Flank pain (Part C: adverse events; All Grades (N = 19)): 2 (10.5) n (%) | Headache (Part C: adverse events; All Grades (N = 19)): 3 (15.8) n (%) | Herpes zoster (Part C: adverse events; All Grades (N = 19)): 2 (10.5) n (%) | Hypertension (Part C: adverse events; All Grades (N = 19)): 3 (15.8) n (%) | Hyperuricaemia (Part C: adverse events; All Grades (N = 19)): 2 (10.5) n (%) | Hypocalcaemia (Part C: adverse events; All Grades (N = 19)): 2 (10.5) n (%) | Hypokalaemia (Part C: adverse events; All Grades (N = 19)): 2 (10.5) n (%) | Hypophosphataemia (Part C: adverse events; All Grades (N = 19)): 2 (10.5) n (%) | Muscle spasms (Part C: adverse events; All Grades (N = 19)): 2 (10.5) n (%) | Nasopharyngitis (Part C: adverse events; All Grades (N = 19)): 2 (10.5) n (%) | Nausea (Part C: adverse events; All Grades (N = 19)): 5 (26.3) n (%) | Neutropenia (Part C: adverse events; All Grades (N = 19)): 4 (21.1) n (%) | Oropharyngeal pain (Part C: adverse events; All Grades (N = 19)): 2 (10.5) n (%) | Pancytopenia (Part C: adverse events; All Grades (N = 19)): 2 (10.5) n (%) | Rash (Part C: adverse events; All Grades (N = 19)): 5 (26.3) n (%) | thrombocytopenia (Part C: adverse events; All Grades (N = 19)): 6 (31.6) n (%) | Abdominal pain (Part C: adverse events; Grade 3 or 4 (N = 9)): 0 n | Anaemia (Part C: adverse events; Grade 3 or 4 (N = 9)): 1 n | Arthralgia (Part C: adverse events; Grade 3 or 4 (N = 9)): 0 n | Back pain (Part C: adverse events; Grade 3 or 4 (N = 9)): 0 n | COVID-19 (Part C: adverse events; Grade 3 or 4 (N = 9)): 1 n | Chest pain (Part C: adverse events; Grade 3 or 4 (N = 9)): 0 n | Constipation (Part C: adverse events; Grade 3 or 4 (N = 9)): 0 n | Contusion (Part C: adverse events; Grade 3 or 4 (N = 9)): 0 n | Cough (Part C: adverse events; Grade 3 or 4 (N = 9)): 0 n | Diarrhoea (Part C: adverse events; Grade 3 or 4 (N = 9)): 1 n | Dizziness (Part C: adverse events; Grade 3 or 4 (N = 9)): 0 n | Dry skin (Part C: adverse events; Grade 3 or 4 (N = 9)): 0 n | Dyspnoea (Part C: adverse events; Grade 3 or 4 (N = 9)): 1 n | Fatigue (Part C: adverse events; Grade 3 or 4 (N = 9)): 0 n | Flank pain (Part C: adverse events; Grade 3 or 4 (N = 9)): 0 n | Headache (Part C: adverse events; Grade 3 or 4 (N = 9)): 0 n | Herpes zoster (Part C: adverse events; Grade 3 or 4 (N = 9)): 0 n | Hypertension (Part C: adverse events; Grade 3 or 4 (N = 9)): 0 n | Hyperuricaemia (Part C: adverse events; Grade 3 or 4 (N = 9)): 0 n | Hypocalcaemia (Part C: adverse events; Grade 3 or 4 (N = 9)): 1 n | Hypokalaemia (Part C: adverse events; Grade 3 or 4 (N = 9)): 1 n | Hypophosphataemia (Part C: adverse events; Grade 3 or 4 (N = 9)): 0 n | Muscle spasms (Part C: adverse events; Grade 3 or 4 (N = 9)): 0 n | Nasopharyngitis (Part C: adverse events; Grade 3 or 4 (N = 9)): 0 n | Nausea (Part C: adverse events; Grade 3 or 4 (N = 9)): 1 n | Neutropenia (Part C: adverse events; Grade 3 or 4 (N = 9)): 3 n | Oropharyngeal pain (Part C: adverse events; Grade 3 or 4 (N = 9)): 0 n | Pancytopenia (Part C: adverse events; Grade 3 or 4 (N = 9)): 1 n | Rash (Part C: adverse events; Grade 3 or 4 (N = 9)): 0 n | thrombocytopenia (Part C: adverse events; Grade 3 or 4 (N = 9)): 4 n | tolerability (Part C: adverse events; heavily pre-treated CML population): well tolerated | Grade 3 or 4 TEAE neutropenia (Part C: adverse events; in vivo): 33.3% | Grade 3 or 4 TEAE thrombocytopenia (Part C: adverse events; in vivo): 44.4% | withdrawal criteria based on QTcF prolongation or safety laboratory tests [2]: No subject reached the subject withdrawal criteria | safety and tolerability ([2]; healthy subjects): safe and well tolerated

Source: patent publication US20260069584A1, “METHODS OF TREATING CHRONIC MYELOID LEUKEMIA USING THE TYROSINE KINASE INHIBITOR VODOBATINIB” (Sun Pharma Advanced Research Company Ltd., priority 2022, published 2026)
